One series is described as follows: Solubility in water. The format is physicochemical.
A short description of another series: Hygroscopicity. Format: physicochemical.
The subject of the next series is rats. The note with it: cited from earlier work.
Another series deals with fatty acid synthesis. The note with it: biological systems, profused organs and intact mammals; cited from earlier work.

As to `O=C([O-])C[C@@](O)(C(=O)[O-])[C@H](O)C(=O)[O-].O=C([O-])C[C@@](O)(C(=O)[O-])[C@H](O)C(=O)[O-].[Ca+2].[Ca+2].[Ca+2]` [pure calcium salt], the “solubility in water (in words)” value in “Solubility in water” was “moderately soluble”. In “Hygroscopicity”, the hygroscopicity entry is reported as “minimal hygroscopicity”.
As to `O=C(O)CC(O)(C(=O)O)C(O)C(=O)O` (stereo not shown) [hydroxycitric acid], in the series on rats, the body weight entry is reported as “significantly reduce the body weight” and the lipid accumulation result is reported as “lower lipid accumulation”. Further, the “inhibition of fatty acid synthesis” value in the series on fatty acid synthesis is given as “substantially inhibit fatty acid synthesis”.
As to `O=C([O-])C[C@@](O)(C(=O)[O-])[C@H](O)C(=O)[O-].[K+].[K+].[K+]` [pure potassium salt], the “solubility in water (in words)” value in the series “Solubility in water” is “highly soluble”. In addition, the hygroscopicity entry in the series “Hygroscopicity” is recorded as “high hygroscopicity”.

Source of the values: patent US7943186B2, “Hydroxycitric acid compositions, pharmaceutical and dietary supplements and food products made therefrom, and methods for their use in reducing body weight” (Interhealth Nutraceuticals, Inc., priority 1997, dated 2011).
